# Source: ChEMBL document CHEMBL2401715, “Synthesis, antitumor and antibacterial activities of some novel tetrahydrobenzo[4,5]thieno[2,3-d]pyrimidine derivatives” (Eur J Med Chem, 2013)
# Columns and labels:
# [1] = system: Pseudomonas aeruginosa; assay: Antibacterial activity against Pseudomonas aeruginosa ATCC 10145 assessed as growth inhibition after 24 to 48 hrs by kirby-bauer disc diffusion method; assay type: functional; further: test concentration or dose not given here
# [2] = system: Staphylococcus aureus; assay: Antibacterial activity against Staphylococcus aureus ATCC 12600 assessed as growth inhibition after 24 to 48 hrs by kirby-bauer disc diffusion method; assay type: functional; further: test concentration or dose not given here
# [3] = system: Bacillus subtilis; assay: Antibacterial activity against Bacillus subtilis ATCC 6051 assessed as growth inhibition after 24 to 48 hrs by kirby-bauer disc diffusion method; assay type: functional; further: test concentration or dose not given here
# [4] = system: MCF7; assay: Cytotoxicity against human MCF7 cells assessed as cell survival after 48 hrs by SRB assay; assay type: functional, cell-based; conditions: MCF7, 48 h
# [5] = system: HepG2; assay: Cytotoxicity against human HepG2 cells assessed as cell survival after 48 hrs by SRB assay; assay type: functional, cell-based; conditions: HepG2, 48 h
# [6] = system: Escherichia coli; assay: Antibacterial activity against Escherichia coli ATCC 11775 assessed as growth inhibition after 24 to 48 hrs by kirby-bauer disc diffusion method; assay type: functional, DSM 30083 = JCM 1649; further: test concentration or dose not given here
# [7] = system: Pseudomonas aeruginosa; assay: Antibacterial activity against Pseudomonas aeruginosa ATCC 10145 assessed as growth inhibition by broth microdilution method; assay type: functional
# [8] = system: Staphylococcus aureus; assay: Antibacterial activity against Staphylococcus aureus ATCC 12600 assessed as growth inhibition by broth microdilution method; assay type: functional
Structure (SMILES),diameter of the inhibition zone (DIZ) [1] [mm],diameter of the inhibition zone (DIZ) [2] [mm],diameter of the inhibition zone (DIZ) [3] [mm],IC50 [4] [µM],IC50 [5] [µM],diameter of the inhibition zone (DIZ) [6] [mm],MIC [7] [µg/mL],MIC [8] [µg/mL]
COc1cc(-c2nc3sc4c(c3c(=O)n2-c2nc3cc(C)ccc3s2)CCCC4)cc(OC)c1OC,12,14,11,65.6,> 192,12,,
COc1cc(-c2nc3sc4c(c3c(=O)n2C(N)=S)CCCC4)cc(OC)c1OC,13,12,12,77.6,> 232,14,,
COc1cc(-c2nc3sc4c(c3c(=O)n2C(N)=O)CCCC4)cc(OC)c1OC,17,16,16,26.2,25.8,16,,
COc1cc(-c2nc3sc4c(c3c(=O)n2C(=O)NO)CCCC4)cc(OC)c1OC,13,12,13,71.2,14.4,14,,
COc1cc(-c2nc3sc4c(c3c(=O)n2-c2ccc(C(=O)O)cc2)CCCC4)cc(OC)c1OC,10,11,12,> 203,29.6,10,,
COc1cc(-c2nc3sc4c(c3c(=O)n2-c2ccc(S(N)(=O)=O)cc2)CCCC4)cc(OC)c1OC,13,9,14,37.1,> 190,12,,
COc1cc(-c2nc3sc4c(c3c(=O)n2C(Cc2ccccc2)C(=O)O)CCCC4)cc(OC)c1OC (configuration not stated),13,10,12,50.1,19.4,13,,
COc1cc(-c2nc3sc4c(c3c(=O)n2C(Cc2cc3ccccc3[nH]2)C(=O)O)CCCC4)cc(OC)c1OC (configuration not stated),0,0,0,> 179,30.9,0,,
COc1cc(-c2nc3sc4c(c3c(=O)n2C2CONC2=O)CCCC4)cc(OC)c1OC (configuration not stated),14,15,15,54.9,24.9,17,,
COc1cc(-c2nc3sc4c(c3c(=O)n2-c2cc(=O)[nH]c(=O)[nH]2)CCCC4)cc(OC)c1OC,14,11,11,83.3,86.4,14,,
COc1cc(-c2nc3sc4c(c3c(=O)n2-c2nc3ccccc3s2)CCCC4)cc(OC)c1OC,15,14,13,11.5,5.14,15,,
COc1cc(-c2nc3sc4c(c3c(=O)n2-c2nc3cc([N+](=O)[O-])ccc3s2)CCCC4)cc(OC)c1OC,14,15,14,21.6,36.9,15,,
NC(=S)n1c(/C=C/c2ccccc2)nc2sc3c(c2c1=O)CCCC3,13,14,13,10.6,17.7,13,,
NC(=O)n1c(/C=C/c2ccccc2)nc2sc3c(c2c1=O)CCCC3,15,16,14,13.4,18.5,14,,
O=C(NO)n1c(/C=C/c2ccccc2)nc2sc3c(c2c1=O)CCCC3,14,15,12,23.9,52,13,,
O=C(O)c1ccc(-n2c(/C=C/c3ccccc3)nc3sc4c(c3c2=O)CCCC4)cc1,14,19,14,45.3,36.9,16,,

Structure (SMILES),diameter of the inhibition zone (DIZ) [1] [mm],diameter of the inhibition zone (DIZ) [2] [mm],diameter of the inhibition zone (DIZ) [3] [mm],IC50 [4] [µM],IC50 [5] [µM],diameter of the inhibition zone (DIZ) [6] [mm],MIC [7] [µg/mL],MIC [8] [µg/mL]
NS(=O)(=O)c1ccc(-n2c(/C=C/c3ccccc3)nc3sc4c(c3c2=O)CCCC4)cc1,15,14,14,0.43,1.29,15,,
O=C(O)C(Cc1ccccc1)n1c(/C=C/c2ccccc2)nc2sc3c(c2c1=O)CCCC3 (configuration not stated),14,16,13,45.3,31.5,14,,
O=C(O)C(Cc1cc2ccccc2[nH]1)n1c(/C=C/c2ccccc2)nc2sc3c(c2c1=O)CCCC3 (configuration not stated),0,0,0,> 202,29.7,0,,
O=C1NOCC1n1c(/C=C/c2ccccc2)nc2sc3c(c2c1=O)CCCC3 (configuration not stated),16,19,15,39.4,6.86,15,,
O=c1cc(-n2c(/C=C/c3ccccc3)nc3sc4c(c3c2=O)CCCC4)[nH]c(=O)[nH]1,15,18,16,11.2,67.2,15,,
O=c1c2c3c(sc2nc(/C=C/c2ccccc2)n1-c1nc2ccccc2s1)CCCC3,14,16,13,4.3,10.6,13,,
Cc1ccc2sc(-n3c(/C=C/c4ccccc4)nc4sc5c(c4c3=O)CCCC5)nc2c1,14,16,15,15.8,36.7,14,,
O=c1c2c3c(sc2nc(/C=C/c2ccccc2)n1-c1nc2cc([N+](=O)[O-])ccc2s1)CCCC3,15,15,14,1.23,10.3,14,,
O=c1[nH]c(/C=C/c2ccccc2)nc2sc3c(c12)CCCC3,0,0,0,28.2,12,0,,
O=c1[nH]c(/C=C/c2ccccc2[N+](=O)[O-])nc2sc3c(c12)CCCC3,0,0,0,11.9,11.9,10,,
C/C(=C\c1ccccc1)c1nc2sc3c(c2c(=O)[nH]1)CCCC3,0,0,0,24.8,33.2,0,,
COc1cc(-c2nc(NC(=O)NO)c3c4c(sc3n2)CCCC4)cc(OC)c1OC,0,0,0,14.2,2.32,0,,
O=C(NO)Nc1nc(/C=C/c2ccccc2)nc2sc3c(c12)CCCC3,12,10,11,6.54,3.27,10,,
Cc1c2ccc(N)cc2nc2cc(Nc3nc(/C=C/c4ccccc4)nc4sc5c(c34)CCCC5)ccc12,12,21,20,0.58,1.36,12,,
CC1(C)S[C@@H]2[C@H](NC(=O)[C@H](N)c3ccccc3)C(=O)N2[C@H]1C(=O)O [AMPICILLIN],17,18,20,,,22,56,48
COc1cccc2c1C(=O)c1c(O)c3c(c(O)c1C2=O)C[C@@](O)(C(=O)CO)C[C@@H]3O[C@H]1C[C@H](N)[C@H](O)[C@H](C)O1 [DOXORUBICIN],,,,,7.36,,,
